In patent publication US11415579B2, “Assay for measuring a rate of reaction between a target and a ligand candidate” (Imperial College Innovations Ltd., priority 2016, dated 2022):

Experiments:
[1] = Kinetic thiol consumption assay with model thiol glutathione; assay type: physicochemical; set-up: Rate constant with glutathione (k(GSH)): unit not given here; conditions: for Rate constant with glutathione (k(GSH)): 500 μM ligand, 5 μM thiol, phosphate buffer pH 8; for Rate constant with Glutathione: Protein: Glutathione, cysteine position NA, in h-1
Method in brief: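 GSH 5 μM, degassed phosphate buffer pH 8, TCEP beads 2% v/v; acrylamide added; RT, 1 h; fluorescence ex/em 380/470 nm; normalized to DMSO/thiol control; k from first-order exponential decay fit.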

Cdk2(T182C) (C177A) = target: T1, Cdk2(T182C) (C177A) (Homo sapiens, UniProt P24941, C177A/T182C); experiment: Kinetic thiol consumption assay with Cdk2 mutant T182C; assay type: binding; set-up: key to Rate enhancement, Cdk2 T182C: rate constant with Cdk2 ÷ rate constant with model thiol (fold); conditions: additional mutation C177A; for Rate constant with Cdk2 T182C: Protein: Cdk2, cysteine position T182C, in h^-1
T1 construct: poly-histidine; made in house; host or cells: E. coli
Method in brief: (§1)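 Thiol consumption was monitored kinetically using 5 μM Cdk2 (C177A plus one introduced cysteine) in degassed phosphate buffer at pH 8 with TCEP beads. Plates were kept 1 h at room temperature before fluorescence reading, and rate constants came from exponential decay fitting.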

Cdk2(R122C) (C177A) = target: T2, Cdk2(R122C) (C177A) (Homo sapiens, UniProt P24941, C177A/R122C); experiment: Kinetic thiol consumption assay with Cdk2 mutant R122C; assay type: binding; set-up: key to Rate enhancement, Cdk2 R122C: rate constant with Cdk2 ÷ rate constant with model thiol (fold); conditions: additional mutation C177A; for Rate constant with Cdk2 R122C: Protein: Cdk2, cysteine position R122C, in h-1
T2 construct: poly-histidine; made in house; host or cells: E. coli
Method in brief: as §1

Cdk2(H71C) (C177A) = target: T3, Cdk2(H71C) (C177A) (Homo sapiens, UniProt P24941, C177A/H71C); experiment: Kinetic thiol consumption assay with Cdk2 mutant H71C; assay type: binding; set-up: key to Rate enhancement, Cdk2 H71C: rate constant with Cdk2 ÷ rate constant with model thiol (fold); conditions: additional mutation C177A; for Rate constant with Cdk2 H71C: Protein: Cdk2, cysteine position H71C, in h^-1
T3 construct: poly-histidine; made in house; host or cells: E. coli
Method in brief: as §1

Cdk2[C177A, F80C, K278C] = target: T4, Cdk2[C177A, F80C, K278C] (Homo sapiens, UniProt P24941, C177A/F80C/K278C); experiment: Kinetic thiol consumption assay with mutant Cdk2 as model thiol; assay type: binding; set-up: unit not given here; conditions: 500 μM ligand, 5 μM thiol, phosphate buffer pH 8
T4 construct: poly-histidine; made in house; host or cells: E. coli
Method in brief: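 First-order rate constants were derived by exponential-decay fitting of DMSO/thiol-normalized fluorescence (380/470 nm) over time at room temperature. Thiol was 5 μM E. coli-expressed His-tagged Cdk2 mutant C177A/F80C/K278C in degassed pH 8 phosphate buffer containing 2% v/v TCEP beads.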

Cdk2(N272C) (C177A) = target: T5, Cdk2(N272C) (C177A) (Homo sapiens, UniProt P24941, C177A/N272C); experiment: Kinetic thiol consumption assay with Cdk2 mutant N272C; assay type: binding; set-up: key to Rate enhancement, Cdk2 N272: rate constant with Cdk2 ÷ rate constant with model thiol (fold); conditions: for Rate enhancement, Cdk2 N272: Cdk2 N272, additional mutation C177A; for Rate constant with Cdk2 N272C: Protein: Cdk2, cysteine position N272C, additional mutation C177A, in h^-1
T5 construct: poly-histidine; made in house; host or cells: E. coli
Method in brief: as §1

[2] = target: T6, human cyclin-dependent kinase 2 (Cdk2) (Homo sapiens, UniProt P24941); experiment: Kinetic thiol consumption assay with wild type Cdk2 (C177); assay type: binding; set-up: key to Rate enhancement, Cdk2 WT: k(Cdk2) divided by k(model thiol); Rate constant with Cdk2 (k(Cdk2)): unit not given here; conditions: for Rate constant with Cdk2 (k(Cdk2)): 500 μM ligand, 5 μM thiol, phosphate buffer pH 8; for Rate enhancement, Cdk2 WT: no additional mutations; for Rate constant with Cdk2 WT: Protein: Cdk2, cysteine position WT, in h^-1; for k(Cdk2)/k(Cdk2_mut) rate enhancement: model thiol Cdk2[C177A, F80C, K278C]; for k(Cdk2)/k(GSH) rate enhancement: model thiol glutathione
T6 construct: poly-histidine; made in house; host or cells: E. coli
Method in brief: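 His-tagged human Cdk2 from E. coli (sole surface cysteine C177) or a model thiol, each 5 μM in degassed phosphate buffer pH 8 with immobilized TCEP, reacted with acrylamides at room temperature. Fluorescence (ex 380/em 470) normalized to DMSO/thiol control over time; first-order rate constants, Cdk2 rate divided by model-thiol rate.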

Cdk2(C177A, F80C) = target: T7, Cdk2(C177A, F80C) (Homo sapiens, UniProt P24941, C177A/F80C); experiment: Kinetic thiol consumption assay with Cdk2 mutant F80C, incl. kobs versus concentration (Kd, k2); assay type: binding; set-up: key to Rate enhancement, Cdk2 F80C: Cdk2 rate constant divided by model-thiol rate constant; conditions: additional mutation C177A; for Rate constant with Cdk2 F80C: Protein: Cdk2, cysteine position F80C, in h^-1
T7 construct: poly-histidine; made in house; host or cells: E. coli
Method in brief: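 His-tagged Cdk2(C177A/F80C) from E. coli or model thiol, 5 μM in degassed phosphate buffer pH 8 with TCEP beads, reacted with acrylamide ligands; fluorescence (ex/em 380/470 nm) normalized to DMSO control and fitted to first-order decay for kobs. Kd and k2 obtained from hyperbolic fit of kobs versus ligand concentration.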

Cdk2(S276C) (C177A) = target: T8, Cdk2(S276C) (C177A) (Homo sapiens, UniProt P24941, C177A/S276C); experiment: Kinetic thiol consumption assay with Cdk2 mutant S276C; assay type: binding; set-up: key to Rate enhancement, Cdk2 S276C: rate constant with Cdk2 ÷ rate constant with model thiol (fold); conditions: additional mutation C177A; for Rate constant with Cdk2 S276C: Protein: Cdk2, cysteine position S276C, in h^-1
T8 construct: poly-histidine; made in house; host or cells: E. coli
Method in brief: as §1

Cdk2(S181C) (C177A) = target: T9, Cdk2(S181C) (C177A) (Homo sapiens, UniProt P24941, C177A/S181C); experiment: Kinetic thiol consumption assay with Cdk2 mutant S181C; assay type: binding; set-up: key to Rate enhancement, Cdk2 S181C: rate constant with Cdk2 ÷ rate constant with model thiol (fold); conditions: additional mutation C177A; for Rate constant with Cdk2 S181C: Protein: Cdk2, cysteine position S181C, in h^-1
T9 construct: poly-histidine; made in house; host or cells: E. coli
Method in brief: as §1

Structure (SMILES): C=CC(=O)N1CCC2(CC1)NC(=O)N(C)C2=O [CA-046]
- Rate constant with glutathione (k(GSH)) [1]: 0.00955
- Rate constant with Glutathione [1]: 0.01631
- Rate enhancement, Cdk2 T182C (Cdk2(T182C) (C177A)): 0.595
- Rate constant with Cdk2 T182C (Cdk2(T182C) (C177A)): 0.009705
- Rate enhancement, Cdk2 R122C (Cdk2(R122C) (C177A)): 0.2397
- Rate constant with Cdk2 R122C (Cdk2(R122C) (C177A)): 0.00391
- Rate enhancement, Cdk2 H71C (Cdk2(H71C) (C177A)): 0.07112
- Rate constant with Cdk2 H71C (Cdk2(H71C) (C177A)): 0.00116
- Rate constant with Cdk2[C177A, F80C, K278C] (k(Cdk2_mut)) (Cdk2[C177A, F80C, K278C]): 0.00249
- Rate enhancement, Cdk2 N272 (Cdk2(N272C) (C177A)): 0.09295
- Rate constant with Cdk2 N272C (Cdk2(N272C) (C177A)): 0.001516
- Rate constant with Cdk2 (k(Cdk2)) [2]: 0.00343
- Rate enhancement, Cdk2 WT [2]: 0.2104
- Rate constant with Cdk2 WT [2]: 0.003432
- k(Cdk2)/k(Cdk2_mut) rate enhancement [2]: 1.377
- k(Cdk2)/k(GSH) rate enhancement [2]: 0.3593
- Rate enhancement, Cdk2 F80C (Cdk2(C177A, F80C)): 0.1163
- Rate constant with Cdk2 F80C (Cdk2(C177A, F80C)): 0.001897
- Rate enhancement, Cdk2 S276C (Cdk2(S276C) (C177A)): 0.7069
- Rate constant with Cdk2 S276C (Cdk2(S276C) (C177A)): 0.01153
- Rate enhancement, Cdk2 S181C (Cdk2(S181C) (C177A)): 0.1987
- Rate constant with Cdk2 S181C (Cdk2(S181C) (C177A)): 0.00324

Structure (SMILES): C=CC(=O)NC1(C2CC2)CC1 [CA-047]
- Rate constant with glutathione (k(GSH)) [1]: 0.00756
- Rate constant with Glutathione [1]: 0.0123
- Rate enhancement, Cdk2 T182C (Cdk2(T182C) (C177A)): 1.063
- Rate constant with Cdk2 T182C (Cdk2(T182C) (C177A)): 0.01308
- Rate enhancement, Cdk2 R122C (Cdk2(R122C) (C177A)): 0.2628
- Rate constant with Cdk2 R122C (Cdk2(R122C) (C177A)): 0.003233
- Rate enhancement, Cdk2 H71C (Cdk2(H71C) (C177A)): 0
- Rate constant with Cdk2[C177A, F80C, K278C] (k(Cdk2_mut)) (Cdk2[C177A, F80C, K278C]): 0.00346
- Rate enhancement, Cdk2 N272 (Cdk2(N272C) (C177A)): 0.1665
- Rate constant with Cdk2 N272C (Cdk2(N272C) (C177A)): 0.002048
- Rate constant with Cdk2 (k(Cdk2)) [2]: 0.0056
- Rate enhancement, Cdk2 WT [2]: 0.4553
- Rate constant with Cdk2 WT [2]: 0.0056
- k(Cdk2)/k(Cdk2_mut) rate enhancement [2]: 1.617
- k(Cdk2)/k(GSH) rate enhancement [2]: 0.7407
- Rate enhancement, Cdk2 F80C (Cdk2(C177A, F80C)): 0.1307
- Rate constant with Cdk2 F80C (Cdk2(C177A, F80C)): 0.001607
- Rate enhancement, Cdk2 S276C (Cdk2(S276C) (C177A)): 0.5464
- Rate constant with Cdk2 S276C (Cdk2(S276C) (C177A)): 0.006721
- Rate enhancement, Cdk2 S181C (Cdk2(S181C) (C177A)): 0.2766
- Rate constant with Cdk2 S181C (Cdk2(S181C) (C177A)): 0.003402

Structure (SMILES): C=CC(=O)N(C)C1CC(OCC)C12CCC2 (centres unmarked) [CA-048]
- Rate constant with glutathione (k(GSH)) [1]: 0.01364
- Rate constant with Glutathione [1]: 0.01891
- Rate enhancement, Cdk2 T182C (Cdk2(T182C) (C177A)): 2.645
- Rate constant with Cdk2 T182C (Cdk2(T182C) (C177A)): 0.05001
- Rate enhancement, Cdk2 R122C (Cdk2(R122C) (C177A)): 0.2023
- Rate constant with Cdk2 R122C (Cdk2(R122C) (C177A)): 0.003826
- Rate enhancement, Cdk2 H71C (Cdk2(H71C) (C177A)): 0.2331
- Rate constant with Cdk2 H71C (Cdk2(H71C) (C177A)): 0.004408
- Rate constant with Cdk2[C177A, F80C, K278C] (k(Cdk2_mut)) (Cdk2[C177A, F80C, K278C]): 0.00791
- Rate enhancement, Cdk2 N272 (Cdk2(N272C) (C177A)): 0.5442
- Rate constant with Cdk2 N272C (Cdk2(N272C) (C177A)): 0.01029
- Rate constant with Cdk2 (k(Cdk2)) [2]: 0.01116
- Rate enhancement, Cdk2 WT [2]: 0.7118
- Rate constant with Cdk2 WT [2]: 0.01346
- k(Cdk2)/k(Cdk2_mut) rate enhancement [2]: 1.41
- k(Cdk2)/k(GSH) rate enhancement [2]: 0.8182
- Rate enhancement, Cdk2 F80C (Cdk2(C177A, F80C)): 0.8022
- Rate constant with Cdk2 F80C (Cdk2(C177A, F80C)): 0.01517
- Rate enhancement, Cdk2 S276C (Cdk2(S276C) (C177A)): 0.779
- Rate constant with Cdk2 S276C (Cdk2(S276C) (C177A)): 0.01473
- Rate enhancement, Cdk2 S181C (Cdk2(S181C) (C177A)): 0.6029
- Rate constant with Cdk2 S181C (Cdk2(S181C) (C177A)): 0.0114
